From US20140171434A1, “SUBSTITUTED IMIDAZOPYRIDINES AND IMIDAZOPYRIDAZINES AND THE USE THEREOF” (BAYER PHARMA AKTIENGESSELLSCHAFT, priority 2011, published 2014) come the findings set out here.

For data set [1], the system named is recombinant guanylate cyclase reporter cell line. The data set can be described thus: Effect on a recombinant guanylate cyclase reporter cell line. The format is cell-based. Here is the method:
The cellular activity of the compounds according to the invention is determined using a recombinant guanylate cyclase reporter cell line, as described in F. Wunder et al., Anal. Biochem. 339, 104-112 (2005).

A further data set deals with rabbit aorta rings. The experiment in a line: Vasorelaxant action in vitro (phenylephrine-contracted rabbit aorta rings). As to conditions: Oryctolagus cuniculus, phenylephrine contraction, 0.1% DMSO, read-out: IC50 (concentration needed to reduce the phenylephrine contraction by 50%). Here is the method: Rabbits are stunned by a blow to the neck and exsanguinated. The aorta is removed, freed from adhering tissue and divided into rings of a width of 1.5 mm. The rings are placed individually under an initial tension in 5 ml organ baths with Krebs-Henseleit solution which is at 37° C., is gassed with carbogen and has the following composition (in each case mM): sodium chloride 119; potassium chloride: 4.8; calcium chloride dihydrate: 1; magnesium sulfate heptahydrate: 1.4; potassium dihydrogenphosphate: 1.2; sodium bicarbonate: 25; glucose: 10. The contractile force is determined with Statham UC2 cells, amplified and digitalized using A/D transducers (DAS 1802 HC, Keithley Instruments Munich), and recorded in parallel on linear recorders. To obtain a contraction, phenylephrine is added to the bath cumulatively in increasing concentration. After several control cycles, the substance to be investigated is added in each further run in increasing dosage in each case, and the height of the contraction achieved is compared with the height of the contraction reached in the last preceding run. This is used to calculate the concentration needed to reduce the magnitude of the control value by 50% (IC50 value). The standard administration volume is 5 μl; the DMSO content in the bath solution corresponds to 0.1%.

Data set [2] can be described thus: Pharmacokinetic parameters following intravenous administration to rats. As to conditions: rat, 0.3 mg/kg intravenous; for MRT / half-life: male, Wistar, plasma; for MRT: read-out: Mean residence time; for half-life: read-out: Terminal half-life (converted). The format is in vivo, male Wistar rats. How it is done: The pharmacokinetic parameters of the compounds of the formula (I) according to the invention are determined in male Wistar rats. The administration volume is 5 ml/kg. Intravenous administration is by means of a species-specific plasma/DMSO formulation (99/1). The taking of blood from rats is simplified by inserting a silicone catheter into the right Vena jugularis externa prior to substance administration. The surgical intervention takes place one day prior to the experiment with isofluran anesthesia and administration of an analgetic (atropine/rimadyl (3/1) 0.1 ml s.c.). Substance administration is as an i.v. bolus. Removal of blood from the rats is after 0.033, 0.083, 0.17, 0.5, 1, 2, 3, 4, 6, 8, 24 and 27 hours. The blood is removed into heparinized tubes. The blood plasma is then obtained by centrifugation; if required, it can be stored at −20° C. until further processing.
An internal standard (ZK 228859) is added to the samples of the compounds of the formula (I) according to the invention, calibration samples and QCs, and the protein is precipitated using excess acetonitrile. After addition of an ammonium acetate buffer (0.01 M, pH 6.8) and subsequent vortexing, the mixture is centrifuged at 1000 g and the supernatant is examined by LC-MS/MS (API 4000, AB Sciex). Chromatographic separation is carried out on an Agilent 1100-HPLC. The injection volume is 20 μl. The separation column used is a Phenomenex Gemini 5μ C18 110A 50×3 mm, adjusted to a temperature of 40° C. A binary mobile phase gradient at 500 μl/min is used (A: 0.01M ammonium acetate buffer pH 6.8, B: 0.1% formic acid in acetonitrile): 0 min (90% A), 1 min (90% A), 3 min (10% A), 4 min (10% A), 4.50 min (90% A), 6 min (90% A). The temperature of the Turbo V ion source is 400° C. The following MS instrument parameters are used: curtain gas 15 units, ion spray voltage 4.8 kV, gas 1 50 units, gas 2 40 units, CAD gas 8 units. The substances are quantified by peak heights or areas using extracted ion chromatograms of specific MRM experiments.
The plasma concentration/time plots determined are used to calculate the pharmacokinetic parameters such as AUC, Cmax, t1/2 (terminal half life), MRT (mean residence time) and CL (clearance), using the validated pharmacokinetic calculation program KinEx (Vers.3).
Since the substance quantification is performed in plasma, it is necessary to determine the blood/plasma distribution of the substance in order to be able to adjust the pharmacokinetic parameters correspondingly. For this purpose, a defined amount of substance is incubated in heparinized whole blood of the species in question in a rocking roller mixer for 20 min. After centrifugation at 1000 g, the plasma concentration is measured (see above) and determined by calculating the quotient of the cblood/cplasma values.
Following intravenous administration of 0.3 mg/kg of representative compounds according to the invention to rats, the data listed in Table 3 were obtained: […]

In the case of `CC1(C)C(=O)Nc2nc(-c3nc(Cc4ccccc4F)n4ncccc34)nc(I)c21` [Example 1, 2-[7-(2-Fluorobenzyl)imidazo[1,5-b]pyridazin-5-yl]-4-iodo-5,5-dimethyl-5,7-dihydro-6H-pyrrolo[2,3-d]pyrimidin-6-one], the “MEC (minimum effective concentration)” value in data set [1] stood at 0.1 µM.
Consider `CC1(C)C(=O)Nc2nc(-c3nc(Cc4ccccc4F)n4ncccc34)ncc21` [Example 3, 2-[7-(2-Fluorobenzyl)imidazo[1,5-b]pyridazin-5-yl]-5,5-dimethyl-5,7-dihydro-6H-pyrrolo[2,3-d]pyrimidin-6-one], for which the IC50 in the data set with rabbit aorta rings is 72 nM. Besides, the “MEC (minimum effective concentration)” value in data set [1] amounted to 0.03 µM.
In the same order, the values of `CC1(C)C(=O)Nc2nc(-c3nc(Cc4ccccc4F)n4ncccc34)nnc21` [Example 4, 3-[7-(2-Fluorobenzyl)imidazo[1,5-b]pyridazin-5-yl]-7,7-dimethyl-5,7-dihydro-6H-pyrrolo[2,3-e][1,2,4]triazin-6-one] are 42 nM and 0.03 µM.
For `CC1(C)C(=O)Nc2nc(-c3nc(Cc4c(F)ccc(F)c4F)n4cc(Cl)ccc34)ncc21` [Example 7, 2-[6-Chloro-3-(2,3,6-trifluorobenzyl)imidazo[1,5-a]pyridin-1-yl]-5,5-dimethyl-5,7-dihydro-6H-pyrrolo[2,3-d]pyrimidin-6-one], the “MEC (minimum effective concentration)” value in data set [1] was found to be 0.01 µM.
`CC1(C)C(=O)Nc2nc(-c3nc(Cc4c(F)ccc(F)c4F)n4cc(Cl)ccc34)nnc21` [Example 11, 3-[6-Chloro-3-(2,3,6-trifluorobenzyl)imidazo[1,5-a]pyridin-1-yl]-7,7-dimethyl-5,7-dihydro-6H-pyrrolo[2,3-e][1,2,4]triazin-6-one]: the IC50 in the data set with rabbit aorta rings came to 30 nM. The “MEC (minimum effective concentration)” value in data set [1] was found to be 0.03 µM. Also, in data set [2], the MRT is 9.4 h, the half-life was 7.2 h and the CLblood is 0.5 mL/min/kg.
For `CC1(C)C(=O)Nc2nc(-c3nc(CCC(F)(F)C(F)(F)F)n4cc(F)ccc34)nnc21` [Example 12, 3-[6-Fluoro-3-(3,3,4,4,4-pentafluorobutyl)imidazo[1,5-a]pyridin-1-yl]-7,7-dimethyl-5,7-dihydro-6H-pyrrolo[2,3-e][1,2,4]triazin-6-one] the same measures were 276 nM, 1.0 µM, 4.6 h, 5.2 h and 2.67 mL/min/kg.

By half-life is commonly meant the time needed for the level to fall by half in the phase considered.
